Assay results published in patent publication US7445765B2, “Radiopharmaceutical for diagnostic imaging containing a technetium-99m nitride heterocomplex” (Nihon Medi-Physics Co., Ltd., priority 2000, dated 2008).
Values belong to the compound of their own block, whether it stands above or below them.

Assay: Biodistribution of the 99mTc(N) heterocomplexes in rats (organ uptake, heart accumulation, heart/lung and heart/liver ratios)
Assay type: in vivo, female Sprague-Dawley rats
Settings: for Heart/liver ratio in biodistribution / Heart/lung ratio in biodistribution / Heart accumulation: rats
Procedure: The biodistribution was measured by using female Sprague-Dawley rats (SD rats) weighing 200 g to 250 g. Each of the ^99mTc(N) heterocomplexes purified in the manner described above was diluted with phosphate buffer (0.1 M, pH=7.4) to obtain a final solution having an ethanol content of 10%. After the SD rats were anesthetized with an intramuscular injection of a mixture of ketamine (80 mg/kg) and xilazine (19 mg/kg), the jugular vein of each rat was surgically exposed and 100 μL (300 to 370 kBq) of the solution containing each ^99mTc(N) heterocomplexes prepared in the manner described above was injected in the jugular vein. The rats (n=3) were sacrificed by cervical dislocation at different times post injection. The blood was withdrawn from the heart through a syringe and counted. It was assumed that the whole blood content was 6.5% of the total body weight. The organs were excised from the rats, washed with physiological saline, weighed, and counted in a NaI well counter.
For comparison, Tables 19 and 20 show the results, obtained in the same manner as above, of measuring the biodistribution of (^99mTc) (MIBI) and (^99mTc) (Tf) which have been used as pharmaceuticals for diagnostic imaging for blood flow in myocardium.
Tables 21 to 23 show data showing the variations with time of heart accumulation, heart/lung ratios and heart/liver ratios for the ^99mTc(N) heterocomplexes of the present invention.

Biodistribution in rats: Adrenal glands (2 min post injection): 2.24 % dose/g
Biodistribution in rats: Blood (2 min post injection): 0.14 % dose/g
Biodistribution in rats: Brain (2 min post injection): 0.02 % dose/g
Biodistribution in rats: Heart (2 min post injection): 2.33 % dose/g
Biodistribution in rats: Intestine (2 min post injection): 3.68 % dose/g
Biodistribution in rats: Kidneys (2 min post injection): 7.19 % dose/g
Biodistribution in rats: Liver (2 min post injection): 2.79 % dose/g
Biodistribution in rats: Lungs (2 min post injection): 0.74 % dose/g
Biodistribution in rats: Muscle (2 min post injection): 0.16 % dose/g
Biodistribution in rats: Spleen (2 min post injection): 1.11 % dose/g
Biodistribution in rats: Submax. glands (2 min post injection): 0.95 % dose/g
Biodistribution in rats: Adrenal glands (10 min (Table 16)): 2.22 % dose/g
Biodistribution in rats: Blood (10 min (Table 16)): 0.93 % dose/g
Biodistribution in rats: Brain (10 min (Table 16)): 0.10 % dose/g
Biodistribution in rats: Heart (10 min (Table 16)): 3.35 % dose/g
Biodistribution in rats: Intestine (10 min (Table 16)): 3.70 % dose/g
Biodistribution in rats: Kidneys (10 min (Table 16)): 5.40 % dose/g
Biodistribution in rats: Liver (10 min (Table 16)): 0.95 % dose/g
Biodistribution in rats: Lungs (10 min (Table 16)): 2.44 % dose/g
Biodistribution in rats: Muscle (10 min (Table 16)): 0.13 % dose/g
Biodistribution in rats: Spleen (10 min (Table 16)): 1.16 % dose/g
Biodistribution in rats: Submax. glands (10 min (Table 16)): 0.92 % dose/g
Biodistribution in rats: Adrenal glands (10 min post injection): 2.70 % dose/g
Biodistribution in rats: Blood (10 min post injection): 0.04 % dose/g
Biodistribution in rats: Brain (10 min post injection): 0.02 % dose/g
Biodistribution in rats: Heart (10 min post injection): 2.91 % dose/g
Biodistribution in rats: Intestine (10 min post injection): 7.12 % dose/g
Biodistribution in rats: Kidneys (10 min post injection): 5.98 % dose/g
Biodistribution in rats: Liver (10 min post injection): 1.54 % dose/g
Biodistribution in rats: Lungs (10 min post injection): 0.73 % dose/g
Biodistribution in rats: Muscle (10 min post injection): 0.22 % dose/g
Biodistribution in rats: Spleen (10 min post injection): 1.28 % dose/g
Biodistribution in rats: Submax. glands (10 min post injection): 1.40 % dose/g
Biodistribution in rats: Adrenal glands (20 min post injection): 2.70 % dose/g
Biodistribution in rats: Blood (20 min post injection): 0.02 % dose/g
Biodistribution in rats: Brain (20 min post injection): 0.01 % dose/g
Biodistribution in rats: Heart (20 min post injection): 2.86 % dose/g
Biodistribution in rats: Intestine (20 min post injection): 7.44 % dose/g
Biodistribution in rats: Kidneys (20 min post injection): 5.31 % dose/g
Biodistribution in rats: Liver (20 min post injection): 1.09 % dose/g
Biodistribution in rats: Lungs (20 min post injection): 0.50 % dose/g
Biodistribution in rats: Muscle (20 min post injection): 0.20 % dose/g
Biodistribution in rats: Spleen (20 min post injection): 1.20 % dose/g
Biodistribution in rats: Submax. glands (20 min post injection): 1.85 % dose/g
Biodistribution in rats: Adrenal glands (30 min post injection): 2.72 % dose/g
Biodistribution in rats: Blood (30 min post injection): 0.02 % dose/g
Biodistribution in rats: Brain (30 min post injection): 0.01 % dose/g
Biodistribution in rats: Heart (30 min post injection): 2.47 % dose/g
Biodistribution in rats: Intestine (30 min post injection): 8.36 % dose/g
Biodistribution in rats: Kidneys (30 min post injection): 5.28 % dose/g
Biodistribution in rats: Liver (30 min post injection): 1.06 % dose/g
Biodistribution in rats: Lungs (30 min post injection): 0.45 % dose/g
Biodistribution in rats: Muscle (30 min post injection): 0.13 % dose/g
Biodistribution in rats: Spleen (30 min post injection): 0.35 % dose/g
Biodistribution in rats: Submax. glands (30 min post injection): 1.51 % dose/g
Biodistribution in rats: Adrenal glands (60 min post injection): 2.23 % dose/g
Biodistribution in rats: Blood (60 min post injection): 0.02 % dose/g
Biodistribution in rats: Brain (60 min post injection): 0.00 % dose/g
Biodistribution in rats: Heart (60 min post injection): 2.74 % dose/g
Biodistribution in rats: Intestine (60 min post injection): 8.29 % dose/g
Biodistribution in rats: Kidneys (60 min post injection): 5.12 % dose/g
Biodistribution in rats: Liver (60 min post injection): 0.43 % dose/g
Biodistribution in rats: Lungs (60 min post injection): 0.35 % dose/g
Biodistribution in rats: Muscle (60 min post injection): 0.15 % dose/g
Biodistribution in rats: Spleen (60 min post injection): 0.73 % dose/g
Biodistribution in rats: Submax. glands (60 min post injection): 1.79 % dose/g
Biodistribution in rats: Adrenal glands (120 min post injection): 2.98 % dose/g
Biodistribution in rats: Blood (120 min post injection): 0.01 % dose/g
Biodistribution in rats: Brain (120 min post injection): 0.01 % dose/g
Biodistribution in rats: Heart (120 min post injection): 2.44 % dose/g
Biodistribution in rats: Intestine (120 min post injection): 8.00 % dose/g
Biodistribution in rats: Kidneys (120 min post injection): 4.50 % dose/g
Biodistribution in rats: Liver (120 min post injection): 0.23 % dose/g
Biodistribution in rats: Lungs (120 min post injection): 0.22 % dose/g
Biodistribution in rats: Muscle (120 min post injection): 0.19 % dose/g
Biodistribution in rats: Spleen (120 min post injection): 0.41 % dose/g
Biodistribution in rats: Submax. glands (120 min post injection): 1.38 % dose/g
SMILES: CCOCCN1CC[P](CCCOC)(CCCOC)[99Tc+]2(#[N])([S]C(N(CCOCC)C(C)C)=[S]2)[P](CCCOC)(CCCOC)CC1 [[^99mTc(N) (PNP5) (ISOET)]^+]

Heart/liver ratio in biodistribution (0 min): 3.53
Heart/lung ratio in biodistribution (0 min): 1.37
Heart/liver ratio in biodistribution (2 min): 0.83
Heart/lung ratio in biodistribution (2 min): 3.15
Heart/liver ratio in biodistribution (10 min): 1.90
Heart/lung ratio in biodistribution (10 min): 3.99
Heart/liver ratio in biodistribution (20 min): 2.62
Heart/lung ratio in biodistribution (20 min): 5.72
Heart/liver ratio in biodistribution (30 min): 2.33
Heart/lung ratio in biodistribution (30 min): 5.49
Heart/liver ratio in biodistribution (60 min): 6.37
Heart/lung ratio in biodistribution (60 min): 7.83
Heart/liver ratio in biodistribution (120 min): 10.61
Heart/lung ratio in biodistribution (120 min): 11.09
SMILES: CCOCCN1CC[P](CCCOC)(CCCOC)[99Tc+]2(#[N])([S]C(N(CCOCC)C(C)C)=[S]2)[P](CCCOC)(CCCOC)CC1 [[^99mTc(N) (PNP5) (ISOET)^+]]

Heart/liver ratio in biodistribution (0 min): 0.63
Heart/lung ratio in biodistribution (0 min): 0.58
Heart/liver ratio in biodistribution (2 min): 0.21
Heart/lung ratio in biodistribution (2 min): 0.99
Heart/liver ratio in biodistribution (10 min): 0.18
Heart/lung ratio in biodistribution (10 min): 1.26
Heart/liver ratio in biodistribution (20 min): 0.18
Heart/lung ratio in biodistribution (20 min): 1.48
Heart/liver ratio in biodistribution (30 min): 0.23
Heart/lung ratio in biodistribution (30 min): 1.75
Heart/liver ratio in biodistribution (60 min): 0.31
Heart/lung ratio in biodistribution (60 min): 2.29
Heart/liver ratio in biodistribution (120 min): 0.51
Heart/lung ratio in biodistribution (120 min): 3.91
SMILES: CCOCCC[P]1(CCCOCC)CCN(CCOCC)CC[P](CCCOCC)(CCCOCC)[99Tc+]12(#[N])[S]C(N(CCOCC)CCOCC)=[S]2 [[^99mTc(N) (PNP6) (DBODC)^+]]

Heart accumulation (0 min): 3.57 ± 0.14 % ID/g
Heart/liver ratio in biodistribution (0 min): 2.45
Heart/lung ratio in biodistribution (0 min): 2.32
Heart accumulation (2 min): 3.42 ± 0.19 % ID/g
Heart/liver ratio in biodistribution (2 min): 1.99
Heart/lung ratio in biodistribution (2 min): 3.39
Heart accumulation (10 min): 3.65 ± 0.56 % ID/g
Heart/liver ratio in biodistribution (10 min): 2.55
Heart/lung ratio in biodistribution (10 min): 4.74
Heart accumulation (20 min): 3.32 ± 0.18 % ID/g
Heart/liver ratio in biodistribution (20 min): 3.82
Heart/lung ratio in biodistribution (20 min): 3.95
Heart accumulation (30 min): 3.27 ± 0.36 % ID/g
Heart/liver ratio in biodistribution (30 min): 7.79
Heart/lung ratio in biodistribution (30 min): 4.74
Heart accumulation (60 min): 3.27 ± 0.62 % ID/g
Heart/liver ratio in biodistribution (60 min): 20.44
Heart/lung ratio in biodistribution (60 min): 9.60
Heart accumulation (120 min): 3.00 ± 0.42 % ID/g
Heart/liver ratio in biodistribution (120 min): 25.01
Heart/lung ratio in biodistribution (120 min): 11.10
SMILES: CCOCCN(CCOCC)C1=[S][99Tc+]2(#[N])([S]1)[P](CCCOC)(CCCOC)CCN(CCOC)CC[P]2(CCCOC)CCCOC [[^99m−Tc(N) (PNP3) (DBODC)^+]]
